Measured values reported in patent publication EP1506011B1, “AN ANTIBODY SELECTIVE FOR A TUMOR NECROSIS FACTOR-RELATED APOPTOSIS-INDUCING LIGAND RECEPTOR AND USES THEREOF” (The UAB Research Foundation, priority 2001, dated 2003).
Residues, ends and D or L forms follow the SMILES beside them. *: point of attachment. Cbz = O=C(OCc1ccccc1)*; CH2F = FC*

How the values were obtained:
[1] = tested on: 2LMP xenografts; test: Analysis of apoptosis in xenografts, TUNEL; type: in vivo, Athymic nude mice; conditions: for stained cells: day 14, 100 µg TRA-8 days 7 and 10, adriamycin 3 mg/kg or paclitaxel 10 mg/kg days 8 and 11, untreated 4%; for intense stained cells: day 14, same doses, untreated 1%
Protocol: One group of mice was untreated. The xenografts were dissected for the study of apoptosis on day 14 after tumor cell injection. The reason for the substantial reduction in treatment intensity compared to our standard treatment protocol was to allow adequate tumor tissue for analysis on day 14. Tunel assay for apoptosis in tumor xenografts was performed as follows. Five-micron paraffin sections of tissue were mounted on Superfrost/Plus slides and heated at 58°C for 1 h. Tissue sections were deparaffinized in three changes of xylene and rehydrated with one change of absolute ethanol, 95% ethanol, and 70% ethanol, each in 5-min increments. Then, the sections were placed in Tris-buffered saline (0.5M Tris base, 0.15 M NaCl, 0.0002% Triton X-100, pH 7.6). Apoptotic nuclei were detected using an Apop Tag Peroxidase kit (Intergen, Purchase, NY). Proteinase K (20 µg/ml in distilled deionized H2O) was added to the tissue specimens and incubated at room temperature for 15 min. Endogenous peroxidases were quenched with an aqueous solution of 3% hydrogen peroxide for 5 min. Sections were treated with an equilibration buffer for 30 min and then incubated with the TdT/enzyme (diluted in labeling reaction mix) for 1 h at 37°C using parafilm covers. During this incubation, the TdT enzyme binds the 3'-OH ends of DNA fragments and catalyzes the addition of digoxigenin-labeled and unlabeled deoxynucleotides. Negative controls were incubated with distilled H2O (diluted in labeling reaction mix) instead of the TdT enzyme. A stop buffer was added for 10 min at room temperature to terminate the labeling reaction. An anti-digoxigenin conjugate was added to each slide for 30 min. The chromagen 3,3' DAB was used to visualize the labeled 3' OH end of DNA fragments. The slides were then rinsed in deionized water and lightly counterstained with hematoxylin, dehydrated using graded alcohols and xylene and coverlsipped using Permount. Approximately 10 random fields were evaluated for percentage of Tunel stained and percentage of intensely stained apoptotic bodies throughout the tissue.

[2] = tested on: PC-3 cells; test: Combination study of TRA-8 with Paclitaxel, XTT viability; type: cell-based; conditions: Homo sapiens, PC-3, read-out: cell viability
Protocol: Human prostate cancer cell line PC-3 is obtained from American Tissue Culture Collection (ATCC) and maintained in F-12K Nutrient Mixture (21127-022, Gibco BRL) containing 10% fetal bovine serum (FBS, Hyclone), 1% L-Glutamine-200 mM (25030-149, Gibco BRL) and 0.5% Penicillin Streptomycin Solution (P-7539, Sigma). RPMI1640 medium (MED-008, IWAKI) supplemented with 10% FBS and 0.5% Penicillin Streptomycin Solution is used in the following experiment. Exponentially growing PC-3 cells are collected by trypsinization and washed twice with fresh medium. The cells are then counted, resuspended in fresh medium at a density of 5 x 10^4 cells/ml and distributed in triplicate into flat-bottomed 96 well plates (3598, Corning-Coster) in a total volume of 100 µl/well one day before the start of the experiment. A representative anti-cancer drug, Paclitaxel (169-18611, Wako) dissolved in dimethylsulfoxide (10 mg/ml) is diluted in fresh medium and then added to the 96-well plates containing the cells at 50 µl/well. The final concentrations of dimethylsulfoxide are less than 0.1%. […] After incubation for a further 24 hr, 50 µl of Minimum Essential Medium (11095-098, Gibco BRL) containing 1 mg/ml of XTT and […] of PMS is added to the wells and the plates are incubated for 6 hr. OD450 is then measured by SPECTRA MAX 250 (Molecular Devices) and the cell viability is calculated as follows.

[3] = tested on: Jurkat cells; test: Caspase inhibition assay, Jurkat cells with TRA-8; type: cell-based, human; conditions: 50 ng/ml TRA-8 overnight
Protocol: Cell viability was determined by ATPLite, MTT, and PI exclusion assays after overnight culture. […] Cell viability was determined by ATPLite. […] Cell viability was determined by ATPLite. The results are presented as mean±SEM of triplicate cultures of two experiments. d. […] Cell viability was determined by ATPLite assay. […] Cell viability of hepatocytes was determined by the ATPLite assay. […] Cell viability was determined by the ATPLite assay.

[4] = tested on: 2LMP human breast cancer xenografts; test: TRA-8 therapy alone or with chemotherapy or radiation in mice bearing breast cancer xenografts; type: in vivo, Athymic nude mice; conditions: Figure 25 experiment; 200 µg TRA-8 i.p., adriamycin 6 mg/kg i.v.
Protocol: Athymic nude mice were injected s.c. with 3 x 10^7 2LMP cells. […] The growth of tumors was monitored over time. […] Tumor size and regression rates were determined.
Data from 6 independent experiments were analyzed by individual experiment. Treatment combinations were compared with respect to in vivo anti-tumor efficacy, i.e., inhibition of tumor growth, which was measured as three endpoints; extension of tumor doubling times, percentage of tumor regressions, and growth rates over time. The actual number of days at which the tumor doubled in surface area (product of two diameters) relative to baseline on day 7 after tumor cell injection was used in the doubling time analysis. The nonparametric Kruskal-Wallis test was used for median tumor doubling time comparisons between treatments. Fisher's exact test was used to compare the proportions of tumor regressions and relapse-free regressions across treatment groups. […]
A total of 166 animals, 10 treatment groups, and 6 independent experiments were included in the aggregate analysis. […] The median tumor doubling times were analyzed using the Kruskal-Wallis test and Fisher's exact test was used to compare the proportions of tumor regressions and relapse-free regressions across treatment groups.

Compound | stained cells [1] [%] | intense stained cells [1] [%] | viability at 0.2 µM [2] [%] | inhibition of TRA-8-mediated cell death [3] | inhibition of tumor growth compared to untreated controls [4]
CC(=O)O[C@H]1C(=O)[C@@]2(C)[C@H]([C@H](OC(=O)c3ccccc3)[C@]3(O)C[C@H](OC(=O)[C@H](O)[C@@H](NC(=O)c4ccccc4)c4ccccc4)C(C)=C1C3(C)C)[C@]1(OC(C)=O)CO[C@@H]1C[C@@H]2O [Paclitaxel] | 7 | 2 | > 40 |  | 
CC(NC(=O)C(NC(=O)OCc1ccccc1)C(C)C)C(=O)NC(CC(=O)O)C(=O)CF (stereo not drawn) [Z-VAD] (Cbz-Val-Ala-Asp-CH2F; configuration not given here) |  |  |  | completely inhibited | 
COc1cccc2c1C(=O)c1c(O)c3c(c(O)c1C2=O)C[C@@](O)(C(=O)CO)C[C@@H]3O[C@H]1C[C@H](N)[C@H](O)[C@H](C)O1 [Adriamycin, doxorubicin] | 8 | 6 |  |  | did not differ from controls
